Experiments:
various tumor cell lines = assay: Present method: tumor cells in implanted encapsulation device, response to antitumor agents; assay type: in vivo
Source text: The present method can be utilized as a first line screen to test potential drug candidates for in vivo efficacy.

p21^WAF1/Clp1 promoter = assay: Hollow fiber p21^WAF1/Clp1 promoter-luciferase reporter assay: light emission from Fibers with H1299C2 cells retrieved from dosed mice; assay type: in vivo, mouse (mouse (human H1299C2 cells in hollow fibers) H1299C2 cells in hollow fibers); settings: H1299C2 cells in hollow fibers implanted s.c. in athymic nude mice; single intravenous dose 50, 25 or 12.5 mg/kg; Fibers retrieved 24 hours after dosing; p<0.01, one tailed Student t-test
Protocol: A human lung cancer cell line, H1299, is obtained from the American Type Culture Collection, ATCC, Rockville, Md.) and cultured in the RPMI 1640 medium supplemented with 10% heat-inactivated Fetal Bovine Serum (Life Technologies, Grand Island, N.Y.). Cells harvested at approx. 85% confluency are washed with ice cold phosphate buffered saline (PBS) and suspended in the ice cold PBS at a concentration of 2×10^7 cells/mL. One half of one mL of the cell suspension is used for transfection with 10 μg of p21^WAF1/Clp1 luciferase plasmid and NeotetR selectable marker. Transfection is performed by electroporation at […]. Cells are then plated in the above medium containing 0.4 mg/mL G-418 (Life Technologies, Grand Island, N.Y.). One colony is selected, diluted to one cell/well and a single clone is expanded to generate p21^WAF1/Clp1 promoter-luciferase stable cell line designated H1299C2. The cell line tests negative for Mycoplasma contamination (Rapid Detection System by Gen-Probe, Inc., San Diego, Calif.) and for Mouse Antibody Production (MA BioServices, Inc., Rockville, Md.).
The H1299C2 cell line is propagated and expanded for implantation in RPMI 1640 medium containing 10% heat-inactivated Fetal Bovine Serum (Life Technologies, Grand Island, N.Y.) in a cell culture incubator, at 37° C. with humidified atmosphere, containing 5% CO2. […]

SMILES | activity when tested on various tumor cell lines with the present method (various tumor cell lines) | expression of the reporter gene (firefly luciferase) in vivo as judged by registered light emission from the Fibers (p21^WAF1/Clp1 promoter)
O=c1[nH]cc(F)c(=O)[nH]1 [5-fluorouracil] | significant activity | –
CC[C@@]1(O)C(=O)OCc2c1cc1n(c2=O)Cc2cc3ccccc3nc2-1 [camptothecin] | significant activity | –
N.N.[Cl][Pt][Cl] [cis-platinum] | significant activity | –
O=C(/C=C/c1ccc(CN(CCO)CCc2c[nH]c3ccccc23)cc1)NO [compound 1, N-hydroxy-3-[4-[[(2-hydroxyethyl)[2-(1H-indol-3-yl)-ethyl]-amino]methyl]phenyl]-2E-2-propenamide] | – | statistically significant (p<0.01, one tailed Student t-test) and reproducible expression of the reporter gene
Cc1[nH]c2ccccc2c1CCNCc1ccc(/C=C/C(=O)NO)cc1 [compound 2, N-hydroxy-3-[4-[[[2-(2-methyl-1H-indol-3-yl)-ethyl]-amino]methyl]phenyl]-2E-2-propenamide] | – | statistically significant (p<0.01, one tailed Student t-test) and reproducible expression of the reporter gene
COc1cccc2c1C(=O)c1c(O)c3c(c(O)c1C2=O)C[C@@](O)(C(=O)CO)C[C@@H]3O[C@H]1C[C@H](N)[C@H](O)[C@H](C)O1 [doxorubicin] | significant activity | –
COc1cc([C@@H]2c3cc4c(cc3[C@@H](O[C@@H]3O[C@@H]5CO[C@@H](C)O[C@H]5[C@H](O)[C@H]3O)[C@H]3COC(=O)[C@H]23)OCO4)cc(OC)c1O [etoposide] | significant activity | –
CO[C@@]12[C@H](COC(N)=O)C3=C(C(=O)C(C)=C(N)C3=O)N1C[C@@H]1N[C@@H]12 [mitomycin C] | significant activity | –
O=C1c2c(O)ccc(O)c2C(=O)c2c(NCCNCCO)ccc(NCCNCCO)c21 [mitoxantrone] | significant activity | –
CC(=O)O[C@H]1C(=O)[C@@]2(C)[C@H]([C@H](OC(=O)c3ccccc3)[C@]3(O)C[C@H](OC(=O)[C@H](O)[C@@H](NC(=O)c4ccccc4)c4ccccc4)C(C)=C1C3(C)C)[C@]1(OC(C)=O)CO[C@@H]1C[C@@H]2O [paclitaxel] | significant activity | –
CC[C@]1(O)C[C@H]2CN(CCc3c([nH]c4ccccc34)[C@@](C(=O)OC)(c3cc4c(cc3OC)N(C=O)[C@H]3[C@@](O)(C(=O)OC)[C@H](OC(C)=O)[C@]5(CC)C=CCN6CC[C@]43[C@@H]65)C2)C1 [vincristine] | significant activity | –
